Test results from patent publication US20210156844A1, “TMEM16A Modulation for Diagnostic or Therapeutic Use in Pulmonary Hypertension (PH)” (Bayer Aktiengesellschaft, priority 2017, published 2021).

What was measured:
PASMC = test: Membrane potential (Em) measurement, current clamp, primary PASMC; type: cell-based, human; conditions: BBR 30 μM, T16Ainh-A01 10 μM
Experimental: PASMC were grown on glass coverslips and serum starved for 24-48 hours. The coverslips were perfused with a bath solution composed of (in mM) NaCl 141, KCl 4.7, HEPES 10, glucose 10, CaCl2 1.8, MgCl2 1.2, pH 7.4 (NaOH) at room temperature. Micropipettes were pulled of borosilicate glass capillaries (GC150F-10, Harvard Apparatus Ltd, Edenbridge, Kent, UK) with a P-2000 electrode puller (Sutter Instruments, Novato Ca, USA), and fire polished using a micro-forge (MF-830, Narishige, Tokyo, Japan) to give a final resistance of 3-5 MΩ when filled with the pipette solution (composition in mM: NaCl 10, KCl 125, K2ATP 5, HEPES 10, EGTA 5, MgCl2 4, pH set to 7.2 with KOH). Em was measured with a HEKA EPC10 patch clamp amplifier (Dr. Schulze GmbH, Lambrecht, Germany) in the current clamp mode as described by others (Mason, M J, et al., Biophys. J. (2005) 88, 739-750; Perkins, KL, J. Neurosci. Methods (2006) 154, 1-18).
The liquid junction potential was calculated with the Clampex 10.0 software (Molecular Devices, Sunnyvale Calif., USA) and an online correction was made for each recording. Both at baseline and during perfusion with 30 μM benzbromarone (BBR, Sigma, St Louis Mo., USA) or 10 μM T16Ainh-A01 (Tocris, Bristol, UK), only those recordings in which (1) the Em was constant for at least 3 minutes, and (2) the seal resistance was constantly high (>5 GΩ) were used for the analyses.
The HEK-293 cells were transfected overnight either with the CLCA1 gene containing or with the empty plasmid, using the Effectene transfection reagent kit (Qiagen) and DMEM F-12 complete medium. On the next day, the medium was changed to serum-free SMC Medium. The resulting conditioned media were collected 24 hours later and applied on the PASMC of healthy donors. After 24 hours of incubation, the Em of the PASMC was measured as described above. To confirm the presence of CLCA1 in the conditioned medium, 20 μL of conditioned medium as well as control medium (collected from cells transfected with the empty plasmide) were analyzed with western blot as described above, using a CLCA1 antibody (ab108851, Abcam).

[1] = Solubility (comparative remark); type: physicochemical
hypoxia-exposed mice = test: Chronic hypoxia-induced mouse model of PH, slow-release pellets; type: in vivo
Text: The experimental protocol is depicted in FIG. 12A. Male C57BL/6J mice (Charles River) at the age of 10 weeks were either placed into a hypoxic chamber (FiO2=0.1, n=16) for 4 weeks, or kept at normoxic conditions (control group, FiO2=0.21, n=8). According to the reports of Fagan et al. (Fagan, K A, et al. Am. J. Physiol. Lung Cell. Mol. Physiol. (2004) 287, L656-664) and Tuscherer et al. (Tuchscherer, H A, et al., J. Biomech. (2007) 40, 993-1001), a significant increase in the right ventricular systolic pressure (RVSP) and PA muscularization can be observed already after 14 days of hypoxia exposure. Therefore, mice subjected to hypoxia were randomized into two groups at the end of the second week. Eight mice received a subcutaneous slow-release pellet containing benzbromarone (Innovative Research of America, Sarasota Fla., USA) (HOX+BBR) and the other 8 mice received pellets with vehicle (HOX+Veh). The pellets ensured a stable blood concentration of the drug/vehicle over the next two weeks. At the end of week 4, all mice were subjected to in vivo hemodynamic measurements, followed by sacrifice and organ collection.
In mice, in vivo hemodynamics was performed under constant inhalation of 2% isoflurane/oxygen, using the closed chest technique through a small incision on the submandibular area. Body temperature was monitored and maintained at 37±1° C. A limb-lead ECG was recorded and the heart rate was kept constant to avoid changes in the sympathetic tone during the experiment. The right ventricle (RV) was catheterized via the right jugular vein using a 1.4 F Millar catheter (SPR-671, Millar, Houston Tex., USA) and right ventricular systolic pressure (RVSP) was measured continuously. Another catheter was inserted into the left carotid artery to monitor systemic blood pressure. After recording of stable values, the experiment was either continued with the assessment of the acute hemodynamic effects of benzbromarone (described above), or mice were sacrificed immediately for organ collection. […]
At the end of the hemodynamic measurements, animals were exsanguinated and the heart and lungs were isolated. […] Right ventricular hypertrophy was assessed by calculating the Fulton index, defined as RV weight/(LV+S weight).
Paraffin-embedded mouse and rat lung tissues were cut to 2 μm thin sections. Double immunohistochemical staining and quantification of the non-muscularized and muscularized arteries were made as previously described (Crnkovic, S, et al., Respir. Physiol. Neurobiol. (2011) 179, 342-345). […] Vessel remodeling in lung sections was quantified using semi-automated image analysis software (Visiopharm, Hoersholm, Denmark). […] The percentage of non-muscularized and muscularized pulmonary arteries, relative to the total number of pulmonary arteries, was calculated. […]

[2] = subcutaneous slow-release pellet weeks 2-4 of 4 weeks hypoxia, vs HOX+Veh

CCc1oc2ccccc2c1C(=O)c1cc(Br)c(O)c(Br)c1 [benzbromarone, (2-Ethyl-3-benzofuranyl)-(3,5-dibrom-4-hydroxyphenyl)ketone]
reversal of the Em of IPAH-PASMC to the levels of PASMC isolated from healthy donors (PASMC; PASMC of IPAH patients): completely
effect on Em of PASMC of donors (PASMC; PASMC of healthy donors): no effect
solubility compared with T16Ainh-A01 [1]: better soluble
PCNA positive nuclei in the medial layer of the PA (hypoxia-exposed mice; hypoxic mice, lung sections (not shown)): reduced number
hypoxia-induced muscularization of pulmonary arteries (hypoxia-exposed mice; ratio of fully vs non-muscularised arteries compared to HOX+Veh): reversed
Fulton index (hypoxia-exposed mice; [2]): lowered
RVSP (hypoxia-exposed mice; [2]): lowered
